Measured values published in patent US8658566B2, “Composition and method for controlling plant diseases” (Sumitomo Chemical Company, Limited, priority 2009, dated 2014).

Tested on: Pythium damping-off pathogen (Pythium irregulare)
Assay: Cucumber seed treatment test against Pythium damping-off (Test Example 1)
Format: in vivo
Conditions: cucumber (Sagamihanjiro) seed treatment, 20° C., 8 days
Protocol: A DMSO solution of the compound I and a DMSO solution of ethaboxam were respectively prepared. These solutions were mixed to prepare a DMSO solution containing predetermined concentrations of the compound I and ethaboxam. Ten (10) μL of the DMSO solution and 1 g of cucumber (Sagamihanjiro) seeds were mixed by shaking in a 15-ml conical tube and then allowed to stand overnight to prepare treated seeds. A plastic pot was filled with sandy soil and the treated seeds were sown on it and then covered with sandy soil which had been mixed with a bran culture of Pythium damping-off pathogen (Pythium irregulare). The sown seeds were watered and then cultured in a cultivation room at 20° C. for 8 days. The occurrence of Pythium damping-off diseases was checked and the incidence of disease was calculated by Equation 1.
For comparison, a DMSO solution containing a predetermined concentration of ethaboxam was prepared and subjected to the same test and then the incidence of disease was determined.
In order to calculate a control value, the same test was conducted in which the plants had been treated with none of the test compounds and the incidence of disease was determined.
The control value was calculated by the Equation 2 based on the incidence of disease thus determined. […]

CCNc1nc(CC)c(C(=O)NC(C#N)c2cccs2)s1 (centres unmarked) [Ethaboxam]
Control value (ethaboxam 2 g/100 kg seeds alone (compound I 0)): 43 | Control value (ethaboxam 10 g/100 kg seeds alone (compound I 0)): 64
